Assay results as given in the NIST ThermoML archive (doi:10.1021/je0499364).
Numbers after ± are expanded uncertainties.

Tests used:
[1] = Molar enthalpy of transition or fusion; conditions: Crystal
[2] = Crystal
[3] = molar heat capacity at constant pressure; conditions: 101.33 kPa

CCCCCCCCCC(=O)OC [methyl decanoate]
Conditions	Molar enthalpy of transition or fusion [kcal/mol]	Triple point temperature [K]
[1]	8.58 ± 0.122	–
[2]	–	260.33 ± 0.16

[3]
Conditions	molar heat capacity at constant pressure [J/K/mol]
5 K, Crystal	0.45 ± 0.03
10 K, Crystal	3.7 ± 0.08
20 K, Crystal	20.01 ± 0.25
30 K, Crystal	37.87 ± 0.23
40 K, Crystal	57.28 ± 0.31
50 K, Crystal	75.63 ± 0.38
60 K, Crystal	91.46 ± 0.45
70 K, Crystal	105.95 ± 0.5
80 K, Crystal	119.09 ± 0.56
90 K, Crystal	131.08 ± 0.66
100 K, Crystal	141.62 ± 0.68
110 K, Crystal	151.65 ± 0.7
120 K, Crystal	160.63 ± 0.72
130 K, Crystal	169.23 ± 0.74
140 K, Crystal	177.35 ± 0.75
150 K, Crystal	185.25 ± 0.77
160 K, Crystal	192.99 ± 0.79
170 K, Crystal	200.77 ± 0.8
180 K, Crystal	209.01 ± 0.82
190 K, Crystal	217.44 ± 0.84
200 K, Crystal	226.26 ± 0.85
210 K, Crystal	234.91 ± 0.87
220 K, Crystal	245.06 ± 0.89
230 K, Crystal	256.05 ± 0.91
240 K, Crystal	269.17 ± 0.94
250 K, Crystal	300.63 ± 1
270 K, Liquid	361.09 ± 8
280 K, Liquid	368.72 ± 1.1
290 K, Liquid	372.12 ± 1.1
300 K, Liquid	376.14 ± 1.1
310 K, Liquid	380.31 ± 1.2
320 K, Liquid	385.19 ± 1.2
330 K, Liquid	389.78 ± 1.2
340 K, Liquid	394.95 ± 1.2
350 K, Liquid	400.2 ± 1.2

CCCCCCCCCCCC(=O)OC [methyl dodecanoate]
Conditions	Molar enthalpy of transition or fusion [kcal/mol]	Triple point temperature [K]
[1]	10.3 ± 0.124	–
[2]	–	278.18 ± 0.16

[3]
Conditions	molar heat capacity at constant pressure [J/K/mol]
5 K, Crystal	0.5 ± 0.03
10 K, Crystal	4.31 ± 0.09
20 K, Crystal	19.62 ± 0.24
30 K, Crystal	40.21 ± 0.24
40 K, Crystal	63.08 ± 0.34
50 K, Crystal	85.07 ± 0.42
60 K, Crystal	103.02 ± 0.49
70 K, Crystal	119.02 ± 0.56
80 K, Crystal	134.57 ± 0.62
90 K, Crystal	148.81 ± 0.7
100 K, Crystal	160.46 ± 0.72
110 K, Crystal	171.83 ± 0.74
120 K, Crystal	181.94 ± 0.76
130 K, Crystal	191.82 ± 0.78
140 K, Crystal	201.16 ± 0.8
150 K, Crystal	209.76 ± 0.82
160 K, Crystal	218.85 ± 0.84
170 K, Crystal	227.97 ± 0.86
180 K, Crystal	237.26 ± 0.87
190 K, Crystal	246.66 ± 0.89
200 K, Crystal	256.21 ± 0.91
210 K, Crystal	265.84 ± 0.93
220 K, Crystal	277.21 ± 0.95
230 K, Crystal	288.57 ± 0.98
240 K, Crystal	299.95 ± 1
250 K, Crystal	315.69 ± 1
260 K, Crystal	335.52 ± 1.1
270 K, Crystal	392.98 ± 1.2
280 K, Liquid	428 ± 1.3
290 K, Liquid	432.76 ± 1.3
300 K, Liquid	438.82 ± 1.3
310 K, Liquid	443.32 ± 1.3
320 K, Liquid	448.38 ± 1.3
330 K, Liquid	453.83 ± 1.3
340 K, Liquid	460.08 ± 1.3
350 K, Liquid	467.86 ± 1.3

CCCCCCCCCCCCCCCCCCCC(=O)OC [methyl eicosanoate]
Conditions	Molar enthalpy of transition or fusion [kcal/mol]	Triple point temperature [K]
[1]	18.83 ± 0.131	–
[2]	–	319.48 ± 0.16

[3]
Conditions	molar heat capacity at constant pressure [J/K/mol]
5 K, Crystal	0.75 ± 0.04
10 K, Crystal	5.46 ± 0.11
20 K, Crystal	28.85 ± 0.35
30 K, Crystal	56.97 ± 0.31
40 K, Crystal	89.89 ± 0.44
50 K, Crystal	122.31 ± 0.57
60 K, Crystal	149.98 ± 0.68
70 K, Crystal	176.8 ± 0.79
80 K, Crystal	199.8 ± 0.88
90 K, Crystal	220.14 ± 0.84
100 K, Crystal	235.76 ± 0.87
110 K, Crystal	255.12 ± 0.91
120 K, Crystal	271.01 ± 0.94
130 K, Crystal	285.48 ± 0.97
140 K, Crystal	299.45 ± 1
150 K, Crystal	313.11 ± 1
160 K, Crystal	326.52 ± 1.1
170 K, Crystal	339.86 ± 1.1
180 K, Crystal	353.31 ± 1.1
190 K, Crystal	366.99 ± 1.1
200 K, Crystal	381.11 ± 1.2
210 K, Crystal	395.71 ± 1.2
220 K, Crystal	411.05 ± 1.2
230 K, Crystal	427.04 ± 1.2
240 K, Crystal	443.77 ± 1.3
250 K, Crystal	461.58 ± 1.3
260 K, Crystal	480.5 ± 1.4
270 K, Crystal	501.55 ± 1.4
280 K, Crystal	525.09 ± 1.4
290 K, Crystal	551.06 ± 1.5
300 K, Crystal	585.33 ± 1.6
330 K, Liquid	714.47 ± 1.8
340 K, Liquid	722.28 ± 1.8
350 K, Liquid	732.2 ± 1.9
